Results: patent publication US20130331326A1, “METHOD OF INDUCING HEMATOPOIETIC RECONSTRUCTION” (DUKE UNIVERSITY, priority 2011, published 2013)
“Also recorded” adds a separate entry of the source.

Key:
EGFR = EGFR phosphorylation in BM KSL cells of erlotinib-treated Tie2Cre;Bak1-/-;BaxFl/- mice; format: in vivo, mouse; conditions: erlotinib-treated Tie2Cre;Bak1-/-;BaxFl/- mice vs water
Procedure: (§1) FIGS. 5A-5D. (FIG. 5A) Schematic diagram of irradiation and treatment of Tie2Cre;Bak1^−/−;Bax^Fl/− mice with erlotinib or water starting 3 days prior to TBI with evaluation of BM progenitor cell content and HSC repopulating capacity via competitive transplantation at +2 hours after TBI. […] A Student's 2-tailed t-test was used for all statistical analyses.

[1] = test system: BM hematopoietic stem and progenitor cells; assay: Hematopoietic regeneration in C57B16 mice after 700 cGy TBI (progenitor assays, competitive repopulation); format: in vivo, mouse
Procedure: (§2) BM cells were collected into PBS (Cellgro, Manassas, Va.) with 10% fetal bovine serum (Hyclone, Logan, Utah) and 1% penicillin/streptomycin (GIBCO, Grand Island, N.Y.). Viable BM cells were quantified using Trypan Blue Stain (Lonza, Basel, Switzerland) to exclude apoptotic and dead cells. Cells were then incubated with anti-c-kit, anti-Sca-1, anti-lineage cocktail, anti-CD41, anti-CD48, and anti-CD150 antibodies (Biolegend and eBiosciences, San Diego, Calif.; BD, San Jose, Calif.) to measure ckit^+sca-1^+lin^− (KSL) progenitor cells or CD150′CD41^−CD48^−KSL (SLAM/KSL) as previously described (Kiel et al, Cell 121:1109-1121 (2005)). Colony forming cells (CFCs) and CFU-S12 assays were also performed to measure functional hematopoietic stem/progenitor cell content. For CFCs, either whole BM or cultured lineage−cells, or KSL cells were plated onto methylcellulose (StemCell Technologies, Vancouver, BC, Canada), and colonies were scored on day 14. 1×10^5 BM or 2×10^5 cells were collected from donor mice and injected via tail vein into recipient C57B16 mice that had been given 950 cGy TBI. At day +12 post-injection, spleens from recipient mice were harvested and stained with Bouin's fixative solution (Ricca Chemical Company, Arlington, Tex.), and colonies were counted as previously described (Till and MeRadiat. Res. 14:213-222 (1961)). Complete blood counts were performed on a HemaVet 950 (Drew Scientific, Dallas, Tex.).
(§3) Competitive repopulation assays were also performed using donor C57B16 mice (CD45.2^+) that had been irradiated with 700 cGy TBI and gavaged daily with 10 μg/G erlotinib (Genentech, San Francisco, Calif.) or 150 μl water beginning on day 0 and continued through day +14. Donor BM cells were injected via tail vein into recipient B6.SJL mice (CD45.1^+) at a dose of 5×10^5 cells with a competing dose of host 1×10^5 BM MNCs. Tie2Cre;Bak1^−/−;Bax^FL/− mice were gavaged daily with 10 μg/G erlotinib or water starting day −3 and given 300 cGy TBI on day 0. Erlotinib administration continued until the timepoint of donor BM cell collection and analysis. Tie2Cre;Bak1^−/−;Bax^FL/− BM cells were injected via tail vein into recipient CD45.1^+ mice at a cell dose of 3×10^5 cells with a competing dose of host 1×10^5 CD45.1^+ cells. Multilineage hematopoietic reconstitution was measured in the PB of recipient mice by flow cytometry at 4, 8, and 12 weeks post-transplant. For survival studies with erlotinib administration, C57B16 mice were exposed to 700 cGy and then given 10 μg/G erlotinib or water starting day −3 and continuing daily through day +14.
Ten micrometer sections were cut using they CryoJane tape system (Instrumedics Inc, Hackensack, N.J., USA). Femurs were stained with hematoxylin and eosin or anti-mouse endothelial cell antibody (MECA-32) as previously described (Salter et al, Blood 113:2104-2107 (2009)) to assess BM cellularity and the BM vasculature after irradiation. Images were obtained using an Axiovert 200 microscope (Carl Zeiss Microscopy, Thornwood, N.Y.) or a Leica SP5 confocal microscope (Leica Microsystems Inc, Buffalo Grove, Ill.). Adobe Photoshop software (version 9.0.2, Adobe Systems, San JoSe, Calif.) was used to quantify positive signal as a measure of spatial distribution in the fields (Lehr et al, J. Histochem. Cytochem. 45:1559-1565 (1997), Lehr et al, J. Histochem. Cytochem. 47:119-126 (1999)).

BM lin- cells = assay: Culture of BM lin- cells from VavCre;EGFRfl/fl or VavCre;EGFR+/+ mice with erlotinib; format: cell-based, mouse; conditions: TSF + 10 uM erlotinib, 72 hours
Procedure: Cell apoptosis and necrosis were analyzed by flow cytometry according to manufacturer's protocols with Annexin V-FITC and 7-AAD staining (BD, San Jose, Calif.). […] Cells were fixed and permeabilized with Fix Buffer I and Perm Buffer III (BD), and then stained with mouse anti-phospho-AKT-S473 PE (BD) or isotype control. Cell cycle analysis was performed by flow cytometric analysis modified from previous reports (Jordan et al, Exp. Hematol. 24:1347-1355 (1996), Chute et al, Hum. Gene Ther. 11:2515-2528 (2000), Sungartz et al, Blood 119:1308-1309 (2012)). Briefly, cells were fixed and permeabilized with 0.25% Saponin (Calbiochem, La Jolla, Calif.), 2.5% paraformaldehyde, 2% FBS in 1×PBS, and then labeled with Ki67-FITC and 7-AAD (BD). BM lin^− cells from VavCre;EGFR^+/+ or VavCre;EGER^fl/fl were cultured with TSF or TSF+10 μM erlotinib, or TSF following 300 cGy for 72 hours, and then collected for total cell counts and CFCs analysis.

C57B16 mice = assay: Survival of C57B16 mice after 700 cGy TBI; format: in vivo, mouse
[2] = test system: BM HSC and progenitor cells; assay: Erlotinib pre-treatment of Tie2Cre;Bak1-/-;BaxFl/- mice, 300 cGy TBI, BM HSC and progenitor cell content; format: in vivo, mouse
Procedure: as §1, §3

BM KSL cells = assay: Culture of 300 cGy-irradiated BM KSL cells with BM ECs or TSF cytokines; CFC and CFU-S12 recovery; format: cell-based, mouse; conditions: screen of candidate proteins from cytokine array; data not shown
Procedure: as §2, with “Tex.). […]” for “Tex.).”

[3] = 700 cGy TBI, erlotinib 10 ug/G oral gavage daily through day +14, vs water

In the case of `C#Cc1cccc(Nc2ncnc3cc(OCCOC)c(OCCOC)cc23)c1` [erlotinib], the “EGFR-phosphorylation in BM KSL cells” value (EGFR) is reported as “decrease in EGFR-phosphorylation”, the “HSC pool at day +14 post-TBI by competitive repopulation assay” value ([1]; 700 cGy TBI, erlotinib 10 ug/G oral gavage daily through day +14) is reported as “essentially absent” and the “BM CFCs and CFU-S12 at day +14” value [1, 3] is reported as “significantly reduced; also recorded: persistent, significant depletion”. For the same molecule, the “BM cellularity at day +14” value [1, 3] was “persistent BM hypoplasia”, the “BM HSCs and progenitor cells at day +7 post-TBI” value ([1]; 700 cGy TBI, erlotinib 10 ug/G oral gavage daily, same in control mice, data not shown) was “depletion of BM HSCs and progenitor cells” and the “short-term and longer-term HSCs (4 week through 12 week donor cell engraftment)” value ([1]; 700 cGy TBI, erlotinib-treated donors vs control) was “marked reduction”. The “hematopoietic reconstitution following total body irradiation” value ([1]; Example 1, administration of erlotinib to mice) was “marked delay”, the “total cells and CFCs” value (BM lin- cells; EGFR+/+ BM lin- cells) was “decreased yield in total cells and CFCs; also recorded: significantly less total cells and CFCs” and the “total cell expansion or CFC production” value (BM lin- cells; EGFRfl/fl BM lin- cells, vs cytokines alone) was “no significant effect”. The “mice that survived beyond day +27” value (C57B16 mice; 10 ug/G erlotinib oral gavage from 3 days prior to TBI for 14 days post-irradiation, water controls 53% at day +30) was 0 of 15, the “mice that died by day +27” value (C57B16 mice; 10 ug/G erlotinib via gavage from 3 days prior to TBI until day +14) was 15 of 15 and the “engraftment of myeloid cells, B cells and T cells at 12 weeks post-transplant” value ([2]; BM from erlotinib-treated Tie2Cre;Bak1-/-;BaxFl/- mice vs irradiated control) was “reduced engraftment”. The “BM KSL cells and CFU-S12 following TBI” value ([2]; erlotinib from 3 days prior to 300 cGy TBI, +2 hours after irradiation, vs water) was “decreased BM KSL cells and decreased BM CFU-S12 content; also recorded: significantly decreased” and the “decreased HSC content (4- to 12-week engraftment in competitively transplanted recipients)” value ([2]; erlotinib-treated, 300 cGy irradiated Tie2Cre;Bak1-/-;BaxFl/- donors vs water) was “more than 20 fold”.

B1: IL17f: candidate cytokine from BM serum array screened on irradiated BM KSL cells (protein, UniProt Q7TNI7 29-161, looked up)
Interleukin-17F: RKNPKAGVPALQKAGNCPPLEDNTVRVDIRIFNQNQGISVPREFQNRSSSPWDYNITRDPHRFPSEIAEAQCRHSGCINAQGQEDSTMNSVAIQQEILVLRREPQGCSNSFRLEKMLLKVGCTCVKPIVHQAA
For B1, the “modulation of the activity of FL/- ECs or FL/+ ECs in promoting BM KSL cell recovery after irradiation” value (shortened to “modulation”) (BM KSL cells) was “none modulated the activity” and the “recovery of BM KSL cells in vitro following irradiation” value (shortened to “recovery of BM KSL cells”) (BM KSL cells) was “none of these proteins significantly altered the recovery”.

B2: KC: keratinocyte-derived chemokine, candidate protein screened on irradiated BM KSL cells (protein, UniProt P12850 25-96, looked up)
Growth-regulated alpha protein: APIANELRCQCLQTMAGIHLKNIQSLKVLPSGPHCTQTEVIATLKNGREACLDPEAPLVQKIVQKMLKGVPK
In the case of B2, the “modulation” value (BM KSL cells) is reported as “none modulated the activity” and the “recovery of BM KSL cells” value (BM KSL cells) is reported as “none of these proteins significantly altered the recovery”.

B3: IL17: candidate cytokine from BM serum array screened on irradiated BM KSL cells (protein, UniProt Q62386 26-158, looked up)
Interleukin-17A: AAIIPQSSACPNTEAKDFLQNVKVNLKVFNSLGAKVSSRRPSDYLNRSTSPWTLHRNEDPDRYPSVIWEAQCRHQRCVNAEGKLDHHMNSVLIQQEILVLKREPESCPFTFRVEKMLVGVGCTCVASIVRQAA
B3 was tested, and the “modulation” value (BM KSL cells) was “none modulated the activity” and the “recovery of BM KSL cells” value (BM KSL cells) was “none of these proteins significantly altered the recovery”.

B4: IL5: candidate cytokine from BM serum array screened on irradiated BM KSL cells (protein, UniProt P04401 21-133, looked up)
Interleukin-5: MEIPMSTVVKETLTQLSAHRALLTSNETMRLPVPTHKNHQLCIGEIFQGLDILKNQTVRGGTVEMLFQNLSLIKKYIDRQKEKCGEERRRTRQFLDYLQEFLGVMSTEWAMEG
In the case of B4, the “modulation” value (BM KSL cells) is reported as “none modulated the activity” and the “recovery of BM KSL cells” value (BM KSL cells) is reported as “none of these proteins significantly altered the recovery”.
